This passage reports Activity, Ki and deltaT results from ChEMBL document CHEMBL1833947, “Synthesis and biological investigation of potential atypical antipsychotics with a tropane core. Part 1” (Eur J Med Chem, 2011).

Activity calls are given as the source filed them. No cut-off for these calls is given here.

Assay [1] has as its system Mus musculus. Nature of the assay: Antidepressant-like activity in Swiss albino mouse assessed as immobilization time at 20 mg/kg, ip after 30 mins by forced swim test. Also on record: dose 20 mg/kg. Type of assay: functional, organism-based.
The test system of assay [2] is Rattus norvegicus. The assay is described as follows: Antipsychotic activity in 8-OH-DPAT-stimulated rat assessed as lower lip retractions at 10 mg/kg, iv administered 45 mins before 8-OH-DPAT challenge measured after 15 to 45 mins (reference value: 2.9 retractions). Format: functional.
In assay [3] the test system is Mus musculus. Nature of the assay: Antipsychotic activity in mouse assessed as reversal of apomorphine-induced mesh climbing response at 10 mg/kg, ip administered 10 mins prior to apomorphine challenge measured after 50 mins. Format: functional, organism-based. Set-up: dose 10 mg/kg.
Assay [4] concerns the target 5-hydroxytryptamine receptor 2A (Rattus norvegicus, UniProt P14842). The assay is described as follows: Displacement of [3H]ketanserin from 5HT2A in rat brain cerebral cortex after 20 mins by scintillation counting. Type of assay: tissue-based.
For assay [5], the species on record is Mus musculus. Particulars: Swiss albino, 5 mg/kg.
Description: Hypothermic effect in Swiss albino mouse assessed as change in body temperature at 5 mg/kg, ip measured after 90 mins
Assay [6] has as its system Rattus norvegicus. Nature of the assay: Antipsychotic activity in 8-OH-DPAT-stimulated rat assessed as lower lip retractions at 20 mg/kg, iv administered 45 mins before 8-OH-DPAT challenge measured after 15 to 45 mins (reference value: 2.9 retractions). Format: functional.
Assay [7] is filed under the species Mus musculus. The following applies: Swiss albino, 20 mg/kg.
Description: Hypothermic effect in Swiss albino mouse assessed as change in body temperature at 20 mg/kg, ip measured after 60 mins
For assay [8], the species on record is Mus musculus. Particulars: Swiss albino, 20 mg/kg. The source holds these as a separate data set.
Description: Hypothermic effect in Swiss albino mouse assessed as change in body temperature at 20 mg/kg, ip measured after 120 mins
The test system of assay [9] is Mus musculus. Nature of the assay: Antipsychotic activity in mouse assessed as reversal of apomorphine-induced mesh climbing response at 10 mg/kg, ip administered 10 mins prior to apomorphine challenge measured after 60 mins. Set-up: dose 10 mg/kg. Format: functional, organism-based.
The species entered for assay [10] is Mus musculus. Particulars: Swiss albino, 10 mg/kg.
Description: Hypothermic effect in Swiss albino mouse assessed as change in body temperature at 10 mg/kg, ip measured after 90 mins
Assay [11] is filed under the species Mus musculus. Particulars: Swiss albino, 20 mg/kg. The source holds these as a separate data set.
Description: Hypothermic effect in Swiss albino mouse assessed as change in body temperature at 20 mg/kg, ip measured after 30 mins in presence of 0.1 mg/kg, sc 5-HT1A antagonist WAY 100635
The species entered for assay [12] is Mus musculus. Particulars: Swiss albino, 5 mg/kg. This is another data set of the same source.
Description: Hypothermic effect in Swiss albino mouse assessed as change in body temperature at 5 mg/kg, ip measured after 60 mins
The species named for assay [13] is Mus musculus. The following applies: Swiss albino, 10 mg/kg. This is another data set of the same source.
Description: Hypothermic effect in Swiss albino mouse assessed as change in body temperature at 10 mg/kg, ip measured after 30 mins
The target of assay [14] is D(2) dopamine receptor (Rattus norvegicus, UniProt P61169). Nature of the assay: Displacement of [3H]spiperone from dopamine D2 receptor in rat striatum tissue after 20 mins by scintillation counting. Format: tissue-based. In general terms: Loss of bound radioactivity is the signal in a displacement assay; it reports binding, not function.
Assay [15] concerns the target T1, 5-hydroxytryptamine receptor 1A (Rattus norvegicus, UniProt P19327).
T1 sequence (P19327 whole entry): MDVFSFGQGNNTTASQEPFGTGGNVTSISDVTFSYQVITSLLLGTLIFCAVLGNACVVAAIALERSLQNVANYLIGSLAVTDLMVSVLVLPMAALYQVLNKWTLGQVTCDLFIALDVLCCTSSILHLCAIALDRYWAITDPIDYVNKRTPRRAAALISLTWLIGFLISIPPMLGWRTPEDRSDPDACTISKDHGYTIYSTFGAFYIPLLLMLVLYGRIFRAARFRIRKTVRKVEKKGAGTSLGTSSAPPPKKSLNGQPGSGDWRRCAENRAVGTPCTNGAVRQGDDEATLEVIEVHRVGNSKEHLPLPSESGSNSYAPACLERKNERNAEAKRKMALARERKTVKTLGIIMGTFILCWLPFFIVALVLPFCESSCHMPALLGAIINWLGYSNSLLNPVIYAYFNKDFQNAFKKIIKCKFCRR
The assay is described as follows: Displacement of [3H]8OH-DPAT from 5HT1A in rat brain cerebral cortex after 15 mins by scintillation counting. Type of assay: tissue-based.

The species named for assay [16] is Mus musculus. Particulars: Swiss albino, 20 mg/kg. The source holds these as a separate data set.
Description: Hypothermic effect in Swiss albino mouse assessed as change in body temperature at 20 mg/kg, ip measured after 60 mins in presence of 0.1 mg/kg, sc 5-HT1A antagonist WAY 100635
For assay [17], the species on record is Mus musculus. The following applies: Swiss albino, 5 mg/kg. This is another data set of the same source.
Description: Hypothermic effect in Swiss albino mouse assessed as change in body temperature at 5 mg/kg, ip measured after 30 mins
The test system of assay [18] is Mus musculus. Nature of the assay: Antipsychotic activity in mouse assessed as reversal of apomorphine-induced mesh climbing response at 50 mg/kg, ip administered 20 mins prior to apomorphine challenge measured after 120 mins.
The subject of assay [19] is Mus musculus. Nature of the assay: Antipsychotic activity in mouse assessed as reversal of apomorphine-induced mesh climbing response at 10 mg/kg, ip administered 10 mins prior to apomorphine challenge measured after 40 mins. Format: functional, organism-based. Also on record: dose 10 mg/kg.
The test system of assay [20] is Mus musculus. Nature of the assay: Antipsychotic activity in mouse assessed as reversal of DOI-induced head twitches at 10 mg/kg, ip administered 30 mins before DOI challenge. Type of assay: functional. The following applies: route intraperitoneal.
The species named for assay [21] is Mus musculus. Particulars: Swiss albino, 10 mg/kg. This is another data set of the same source.
Description: Hypothermic effect in Swiss albino mouse assessed as change in body temperature at 10 mg/kg, ip measured after 120 mins
Assay [22] relates to Mus musculus. Nature of the assay: Antidepressant-like activity in Swiss albino mouse assessed as immobilization time at 10 mg/kg, ip after 30 mins by forced swim test. Type of assay: functional.
For assay [23], the species on record is Mus musculus. The following applies: Swiss albino, 20 mg/kg. This is another data set of the same source.
Description: Hypothermic effect in Swiss albino mouse assessed as change in body temperature at 20 mg/kg, ip measured after 30 mins
The species named for assay [24] is Mus musculus. Particulars: Swiss albino, 20 mg/kg. This is another data set of the same source.
Description: Hypothermic effect in Swiss albino mouse assessed as change in body temperature at 20 mg/kg, ip measured after 90 mins
The species named for assay [25] is Mus musculus. Particulars: Swiss albino, 5 mg/kg. This is another data set of the same source.
Description: Hypothermic effect in Swiss albino mouse assessed as change in body temperature at 5 mg/kg, ip measured after 120 mins
Assay [26] concerns Rattus norvegicus. Nature of the assay: Induction of 5HT1A receptor in rat assesses as lower lip retractions at 10 mg/kg, iv after 15 mins (reference value: 0.1 +/- 0.1 retractions). Type of assay: functional.
Assay [27] deals with Rattus norvegicus. The assay is described as follows: Induction of 5HT1A receptor in rat assesses as lower lip retractions at 20 mg/kg, iv after 15 mins (reference value: 0.1 +/- 0.1 retractions). Type of assay: functional.
Assay [28] relates to Mus musculus. Nature of the assay: Antipsychotic activity in mouse assessed as reversal of DOI-induced head twitches at 5 mg/kg, ip administered 30 mins before DOI challenge. Format: functional. The following applies: route intraperitoneal.
In assay [29] the test system is Mus musculus. Nature of the assay: Antipsychotic activity in mouse assessed as reversal of DOI-induced head twitches at 20 mg/kg, ip administered 30 mins before DOI challenge. The following applies: route intraperitoneal. Type of assay: functional.
The species named for assay [30] is Mus musculus. Particulars: Swiss albino, 10 mg/kg. This is another data set of the same source.
Description: Hypothermic effect in Swiss albino mouse assessed as change in body temperature at 10 mg/kg, ip measured after 60 mins
Assay [31] has as its system Mus musculus. Nature of the assay: Antidepressant-like activity in Swiss albino mouse assessed as immobilization time at 2 mg/kg, sc after 30 mins by forced swim test. Format: functional. The following applies: route subcutaneous.
Assay [32] concerns Mus musculus. Nature of the assay: Antidepressant-like activity in Swiss albino mouse assessed as immobilization time at 1 mg/kg, sc after 30 mins by forced swim test. The following applies: route subcutaneous. Format: functional.
In assay [33] the test system is Mus musculus. Nature of the assay: Anxiolytic-like activity in mouse assessed as number of punished crossing at 10 mg/kg, ip after 6 mins by four-plate test (reference value: 554 +/- 46 crossings). Format: functional. Particulars: route intraperitoneal.
For assay [34], the system named is Mus musculus. Nature of the assay: Anxiolytic-like activity in mouse assessed as number of punished crossing at 10 mg/kg, ip after 30 mins by four-plate test (reference value: 554 +/- 46 crossings). Format: functional. The following applies: route intraperitoneal.

One may read the Ki as a measure of affinity in units of concentration, obtained from inhibition or displacement.

Sequence of D(2) dopamine receptor (P61169 whole entry): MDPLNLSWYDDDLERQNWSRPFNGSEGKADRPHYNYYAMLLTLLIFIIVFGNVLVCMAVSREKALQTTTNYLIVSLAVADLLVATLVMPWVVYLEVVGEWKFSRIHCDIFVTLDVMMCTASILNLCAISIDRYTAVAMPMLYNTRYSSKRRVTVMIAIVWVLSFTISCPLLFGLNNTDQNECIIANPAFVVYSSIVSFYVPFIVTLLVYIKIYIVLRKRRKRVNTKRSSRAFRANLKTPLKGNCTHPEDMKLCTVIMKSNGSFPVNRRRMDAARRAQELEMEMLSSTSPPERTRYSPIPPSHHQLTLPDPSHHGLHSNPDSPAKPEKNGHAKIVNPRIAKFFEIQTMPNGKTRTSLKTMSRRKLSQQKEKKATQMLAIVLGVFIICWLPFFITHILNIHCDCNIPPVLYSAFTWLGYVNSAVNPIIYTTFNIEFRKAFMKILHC
Sequence of 5-hydroxytryptamine receptor 2A (P14842 whole entry): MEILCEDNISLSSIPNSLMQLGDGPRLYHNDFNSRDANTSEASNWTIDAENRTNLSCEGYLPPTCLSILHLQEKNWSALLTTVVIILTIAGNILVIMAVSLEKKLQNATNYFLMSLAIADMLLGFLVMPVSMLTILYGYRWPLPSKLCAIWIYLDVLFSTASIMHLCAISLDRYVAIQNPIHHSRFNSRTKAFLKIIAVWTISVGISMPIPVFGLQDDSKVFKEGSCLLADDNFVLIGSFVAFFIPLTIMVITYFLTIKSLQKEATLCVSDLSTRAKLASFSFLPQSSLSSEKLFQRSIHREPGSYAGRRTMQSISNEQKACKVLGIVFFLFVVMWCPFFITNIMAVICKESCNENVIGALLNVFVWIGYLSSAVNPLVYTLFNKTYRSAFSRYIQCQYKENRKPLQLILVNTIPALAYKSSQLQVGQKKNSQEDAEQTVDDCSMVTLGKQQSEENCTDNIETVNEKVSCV

As for `COc1cc(N)c(Cl)cc1C(=O)N[C@H]1CC2CC[C@H](C1)N2Cc1ccco1` (single isomer, unassigned), the result in assay [1] and in [22] was inactive. Further, the Activity stood at 2.6 in [2]; 2.7 in [6]; 97% in assay [20]; 0.2 in [26]; 0.1 in [27]; 68% in [28]. For the same compound, the Activity in assay [29] is given as 100%. Also, the result in assay [3], in assay [9], in assay [18] and in assay [19] was Active. Besides, the Ki is 16.6 nM in assay [4], 18.2 nM in assay [14] and 2500 nM in assay [15]. The deltaT was 0.1 °C in assay [5]; -1 °C in assay [7]; -0.9 °C in assay [8]; -0.1 °C in assay [10]; -1.3 °C in assay [11]; -0.3 °C in [12]. The deltaT in [13] was -0.3 °C; in assay [16], -0.8 °C; in assay [17] it was 0 °C; in assay [21] it was -0.1 °C; in assay [23], -1.8 °C; in assay [24], -1 °C. Besides, the deltaT in assay [25] was 0.1 °C; in [30] it was -0.2 °C.
On to `Br.CCCN(CCC)C1CCc2cccc(O)c2C1` (stereo not drawn), for which the figures for the Activity in assay [31] and in assay [32] were 57% and 45%, respectively.
As for `O=C(N[C@H]1CC2CC[C@H](C1)N2Cc1ccco1)c1ccc2ccccc2c1` (single isomer, unassigned), the result in assay [1] was inactive. The Activity in [2] was 2.7; in assay [33], 233; in [6] it was 2; in assay [34], 566; in assay [22] (route intraperitoneal), 9%; in assay [26], 0.1. Also, the Activity in [27] is 0.6. Further, the Ki in [4] was 24.1 nM; in [14] it was 203 nM; in [15], 2800 nM. Further, the deltaT in [5] was 0.1 °C; in assay [7] it was -0.8 °C; in assay [8], -0.2 °C; in assay [11] it was -1.2 °C; in assay [12], 0.1 °C; in [16] it was -1.1 °C. For the same compound, the deltaT in assay [17] is -0.2 °C; in [23], -1.3 °C; in assay [24], -0.4 °C; in [25], 0.1 °C.
